Compound `C1N2CN3CN1CN(C2)C3` has a solubility (mole fraction) (in acetic acid, 304.52 K) of 0.245, a solubility (mole fraction) (in acetic acid, 310.83 K) of 0.245 and a solubility (mole fraction) (in acetic acid, 317.35 K) of 0.246. For the same compound, the solubility (mole fraction) (in acetic acid, 321.91 K) was 0.249, the solubility (mole fraction) (in acetic acid, 327.65 K) was 0.25 and the solubility (mole fraction) (in acetic acid, 332.65 K) was 0.251. The solubility (mole fraction) (in acetic acid, 337.15 K) was 0.256, the solubility (mole fraction) (in ethanol, 288.19 K) was 0.0085 and the solubility (mole fraction) (in ethanol, 293.49 K) was 0.0096. For the same compound, the solubility (mole fraction) (in ethanol, 298.43 K) was 0.0107, the solubility (mole fraction) (in ethanol, 303.4 K) was 0.012 and the solubility (mole fraction) (in ethanol, 312.91 K) was 0.0148. The solubility (mole fraction) (in methanol, 299.91 K) was 0.0234, the solubility (mole fraction) (in methanol, 304.45 K) was 0.0251 and the solubility (mole fraction) (in methanol, 307.85 K) was 0.0264. It also gave a solubility (mole fraction) (in methanol, 311.9 K) of 0.028, a solubility (mole fraction) (in methanol, 315.95 K) of 0.0293 and a solubility (mole fraction) (in methanol, 319.63 K) of 0.0304. The solubility (mole fraction) (in methanol, 323.65 K) was 0.032, the solubility (mole fraction) (in methanol, 326.25 K) was 0.0335 and the solubility (mole fraction) (in methanol, 330.85 K) was 0.0353. It also gave a solubility (mole fraction) (in water, 303.21 K) of 0.098, a solubility (mole fraction) (in water, 307.4 K) of 0.0959 and a solubility (mole fraction) (in water, 312.18 K) of 0.0948. For the same compound, the solubility (mole fraction) (in water, 317.05 K) was 0.0931, the solubility (mole fraction) (in water, 321.86 K) was 0.0914 and the solubility (mole fraction) (in water, 326.15 K) was 0.0894. The solubility (mole fraction) (in water, 330.45 K) was 0.0891, the solubility (mole fraction) (in water, 335.42 K) was 0.0895 and the solubility (mole fraction) (in water, 340.35 K) was 0.0914.
